Results: the NIST ThermoML archive (doi:10.1016/j.jct.2015.03.007)
± gives the expanded uncertainty stated by the source.

Assay: xn = mol fraction of the nth substance listed
Settings: Fluid (supercritical or subcritical phases), Vibrating wire viscometry, x2 = 0.5174

## C [methane] + O=C=O
229 K, 14501 kPa
  viscosity: 0.073 ± 0.0013 mPa·s
229.3 K, 12980 kPa
  viscosity: 0.0703 ± 0.0011 mPa·s
229.4 K, 11654 kPa
  viscosity: 0.06874 ± 0.0014 mPa·s
229.5 K, 10963 kPa
  viscosity: 0.0679 ± 0.0012 mPa·s
229.5 K, 13698 kPa
  viscosity: 0.0721 ± 0.0011 mPa·s
229.5 K, 14200 kPa
  viscosity: 0.07231 ± 0.0011 mPa·s
229.6 K, 10168 kPa
  viscosity: 0.06646 ± 0.00092 mPa·s
257.8 K, 19252 kPa
  viscosity: 0.05496 ± 0.00098 mPa·s
257.8 K, 21263 kPa
  viscosity: 0.0575 ± 0.00094 mPa·s
257.9 K, 12165 kPa
  viscosity: 0.04274 ± 0.0009 mPa·s
257.9 K, 14190 kPa
  viscosity: 0.047 ± 0.00078 mPa·s
257.9 K, 18239 kPa
  viscosity: 0.0541 ± 0.0016 mPa·s
257.9 K, 22280 kPa
  viscosity: 0.05903 ± 0.001 mPa·s
257.9 K, 23289 kPa
  viscosity: 0.05979 ± 0.001 mPa·s
258 K, 16209 kPa
  viscosity: 0.05083 ± 0.001 mPa·s
287.7 K, 7818 kPa
  viscosity: 0.01711 ± 0.00026 mPa·s
287.7 K, 8134 kPa
  viscosity: 0.01748 ± 0.00024 mPa·s
287.7 K, 11663 kPa
  viscosity: 0.02384 ± 0.00034 mPa·s
287.7 K, 12567 kPa
  viscosity: 0.02598 ± 0.0006 mPa·s
287.7 K, 13512 kPa
  viscosity: 0.02819 ± 0.00042 mPa·s
287.7 K, 14605 kPa
  viscosity: 0.03051 ± 0.00064 mPa·s
287.7 K, 15897 kPa
  viscosity: 0.03311 ± 0.00048 mPa·s
287.7 K, 17472 kPa
  viscosity: 0.03599 ± 0.00062 mPa·s
287.7 K, 19398 kPa
  viscosity: 0.0392 ± 0.00068 mPa·s
287.7 K, 21895 kPa
  viscosity: 0.04255 ± 0.00094 mPa·s
287.7 K, 25061 kPa
  viscosity: 0.04633 ± 0.00088 mPa·s
287.8 K, 8895 kPa
  viscosity: 0.01845 ± 0.0003 mPa·s
287.8 K, 9137 kPa
  viscosity: 0.01889 ± 0.0003 mPa·s
287.8 K, 9866 kPa
  viscosity: 0.02011 ± 0.00034 mPa·s
287.8 K, 31033 kPa
  viscosity: 0.0527 ± 0.00074 mPa·s
288.1 K, 1438 kPa
  viscosity: 0.01349 ± 0.0002 mPa·s
288.1 K, 1553 kPa
  viscosity: 0.0135 ± 0.00022 mPa·s
288.1 K, 2042 kPa
  viscosity: 0.01369 ± 0.00024 mPa·s
288.1 K, 2553 kPa
  viscosity: 0.01388 ± 0.0002 mPa·s
288.1 K, 3073 kPa
  viscosity: 0.01402 ± 0.0002 mPa·s
288.1 K, 3570 kPa
  viscosity: 0.01425 ± 0.0002 mPa·s
288.1 K, 5123 kPa
  viscosity: 0.01498 ± 0.00024 mPa·s
288.1 K, 5405 kPa
  viscosity: 0.01519 ± 0.00022 mPa·s
288.2 K, 4066 kPa
  viscosity: 0.01442 ± 0.00026 mPa·s
288.2 K, 4594 kPa
  viscosity: 0.01468 ± 0.00022 mPa·s
288.2 K, 6609 kPa
  viscosity: 0.01593 ± 0.00022 mPa·s
288.2 K, 7116 kPa
  viscosity: 0.01636 ± 0.00024 mPa·s
288.2 K, 9140 kPa
  viscosity: 0.01892 ± 0.00034 mPa·s
288.2 K, 11159 kPa
  viscosity: 0.02281 ± 0.00054 mPa·s
288.2 K, 13180 kPa
  viscosity: 0.02721 ± 0.00042 mPa·s
288.2 K, 15201 kPa
  viscosity: 0.03146 ± 0.00052 mPa·s
288.2 K, 19138 kPa
  viscosity: 0.03829 ± 0.00058 mPa·s
288.2 K, 21458 kPa
  viscosity: 0.04192 ± 0.0007 mPa·s
288.2 K, 23984 kPa
  viscosity: 0.04512 ± 0.00092 mPa·s
288.2 K, 25172 kPa
  viscosity: 0.04621 ± 0.0007 mPa·s
288.2 K, 26302 kPa
  viscosity: 0.04748 ± 0.0013 mPa·s
317.8 K, 2056 kPa
  viscosity: 0.01479 ± 0.00024 mPa·s
317.9 K, 1389 kPa
  viscosity: 0.01457 ± 0.00026 mPa·s
317.9 K, 1545 kPa
  viscosity: 0.01462 ± 0.00026 mPa·s
318 K, 2566 kPa
  viscosity: 0.015 ± 0.0002 mPa·s
318 K, 3069 kPa
  viscosity: 0.01518 ± 0.00026 mPa·s
318 K, 4578 kPa
  viscosity: 0.01571 ± 0.0004 mPa·s
318 K, 5085 kPa
  viscosity: 0.01587 ± 0.00024 mPa·s
318 K, 6297 kPa
  viscosity: 0.01646 ± 0.00028 mPa·s
318.1 K, 6520 kPa
  viscosity: 0.01648 ± 0.00024 mPa·s
318.1 K, 7151 kPa
  viscosity: 0.01689 ± 0.00026 mPa·s
318.1 K, 7212 kPa
  viscosity: 0.01688 ± 0.00026 mPa·s
318.1 K, 8226 kPa
  viscosity: 0.01751 ± 0.00028 mPa·s
318.1 K, 9335 kPa
  viscosity: 0.0182 ± 0.00026 mPa·s
318.1 K, 10457 kPa
  viscosity: 0.01916 ± 0.00034 mPa·s
318.1 K, 11460 kPa
  viscosity: 0.02013 ± 0.0003 mPa·s
318.1 K, 12573 kPa
  viscosity: 0.02123 ± 0.00034 mPa·s
318.1 K, 13584 kPa
  viscosity: 0.02235 ± 0.00044 mPa·s
318.1 K, 14713 kPa
  viscosity: 0.02377 ± 0.00038 mPa·s
318.1 K, 15239 kPa
  viscosity: 0.02432 ± 0.00042 mPa·s
318.1 K, 15724 kPa
  viscosity: 0.02502 ± 0.00042 mPa·s
318.1 K, 16254 kPa
  viscosity: 0.02562 ± 0.0006 mPa·s
318.1 K, 17842 kPa
  viscosity: 0.02789 ± 0.00048 mPa·s
318.1 K, 20300 kPa
  viscosity: 0.03122 ± 0.0005 mPa·s
318.1 K, 21518 kPa
  viscosity: 0.03236 ± 0.00056 mPa·s
318.1 K, 22819 kPa
  viscosity: 0.03405 ± 0.00056 mPa·s
318.1 K, 24011 kPa
  viscosity: 0.03506 ± 0.00064 mPa·s
318.1 K, 25249 kPa
  viscosity: 0.03636 ± 0.00056 mPa·s
318.1 K, 26412 kPa
  viscosity: 0.03781 ± 0.0006 mPa·s
318.1 K, 27392 kPa
  viscosity: 0.03909 ± 0.00076 mPa·s
318.1 K, 28884 kPa
  viscosity: 0.04047 ± 0.00068 mPa·s
318.1 K, 30364 kPa
  viscosity: 0.04187 ± 0.0007 mPa·s
318.1 K, 31857 kPa
  viscosity: 0.04341 ± 0.00066 mPa·s
347.7 K, 4516 kPa
  viscosity: 0.01665 ± 0.00026 mPa·s
347.8 K, 2161 kPa
  viscosity: 0.01599 ± 0.00034 mPa·s
347.8 K, 2764 kPa
  viscosity: 0.01606 ± 0.00026 mPa·s
347.8 K, 2964 kPa
  viscosity: 0.01612 ± 0.0003 mPa·s
347.8 K, 3169 kPa
  viscosity: 0.01615 ± 0.00026 mPa·s
347.8 K, 3278 kPa
  viscosity: 0.01616 ± 0.00024 mPa·s
347.8 K, 3485 kPa
  viscosity: 0.01631 ± 0.00024 mPa·s
347.8 K, 4003 kPa
  viscosity: 0.01648 ± 0.00028 mPa·s
347.8 K, 5009 kPa
  viscosity: 0.01682 ± 0.0003 mPa·s
347.8 K, 5509 kPa
  viscosity: 0.01696 ± 0.00032 mPa·s
347.8 K, 5514 kPa
  viscosity: 0.01701 ± 0.00024 mPa·s
347.8 K, 6032 kPa
  viscosity: 0.01714 ± 0.00026 mPa·s
347.8 K, 6512 kPa
  viscosity: 0.01731 ± 0.00026 mPa·s
347.8 K, 7016 kPa
  viscosity: 0.01746 ± 0.00024 mPa·s
347.8 K, 7538 kPa
  viscosity: 0.01766 ± 0.0003 mPa·s
347.8 K, 8039 kPa
  viscosity: 0.01795 ± 0.0003 mPa·s
347.8 K, 8528 kPa
  viscosity: 0.01812 ± 0.00038 mPa·s
347.8 K, 9051 kPa
  viscosity: 0.01836 ± 0.00026 mPa·s
347.8 K, 10090 kPa
  viscosity: 0.0189 ± 0.0003 mPa·s
347.8 K, 10617 kPa
  viscosity: 0.01914 ± 0.00032 mPa·s
347.8 K, 11109 kPa
  viscosity: 0.01948 ± 0.00036 mPa·s
347.8 K, 11596 kPa
  viscosity: 0.01976 ± 0.00036 mPa·s
347.8 K, 12118 kPa
  viscosity: 0.02008 ± 0.00036 mPa·s
347.8 K, 12605 kPa
  viscosity: 0.02043 ± 0.00034 mPa·s
347.8 K, 13204 kPa
  viscosity: 0.02102 ± 0.00034 mPa·s
347.8 K, 13713 kPa
  viscosity: 0.02132 ± 0.00034 mPa·s
347.8 K, 14226 kPa
  viscosity: 0.02172 ± 0.00034 mPa·s
347.8 K, 14732 kPa
  viscosity: 0.02205 ± 0.00038 mPa·s
347.8 K, 16775 kPa
  viscosity: 0.02364 ± 0.00044 mPa·s
347.8 K, 18782 kPa
  viscosity: 0.02533 ± 0.00054 mPa·s
347.8 K, 20792 kPa
  viscosity: 0.02732 ± 0.00048 mPa·s
347.9 K, 1555 kPa
  viscosity: 0.01586 ± 0.00034 mPa·s
347.9 K, 1745 kPa
  viscosity: 0.01584 ± 0.00034 mPa·s
347.9 K, 1956 kPa
  viscosity: 0.01592 ± 0.0003 mPa·s
347.9 K, 2361 kPa
  viscosity: 0.01592 ± 0.00038 mPa·s
347.9 K, 2566 kPa
  viscosity: 0.01603 ± 0.00032 mPa·s
